Data as given in patent US12247004B2, “2-amino-N-(amino-oxo-aryl-lambda6-sulfanylidene)acetamide compounds and their therapeutic use” (Oxford Drug Design Limited, priority 2019, dated 2025).
≈ marks a conversion by molar mass, not a printed value. Where two headings read alike, the source gives them in different places.

Columns and labels:
[1] = test system: bacteria (ATCC reference strains); experiment: Antibacterial activity, MIC by broth micro-dilution (CLSI)
[2] = Human cell viability / cytotoxicity (CellTiter-Glo, 24 hours); type: cell-based; details: human, HepG2 cells (ATCC HB-8065); HepG2 ATCC HB-8065, 24 hours; read-out: Cytotoxicity in HepG2 ATCC HB-8065 Cell Line, IC50
Description: Study 3—Human Cell Viability
Compounds were assessed for potential non-specific cytotoxic effects against a human hepatic cell line (HepG2 ATCC HB-8065). 96-well plates were seeded with HepG2 cells in concentration of 15,000 cells per well in 100 μL of MEM growth media completed with 1% NEAA and 1% sodium pyruvate. Border wells were filled with 100 μL of sterile PBS. Two days upon cells incubation, the compounds were added. Compound dilutions were prepared in 96-well V-bottom plate in pure DMSO. Growth media from 5 plates were aspirated and replaced with 98.7 μL of fresh growth media. 1.28 μL of compounds prepared in V-bottom plates were transferred with multichannel pipette into test plates (78.1× dilution). Final DMSO concentration was 1.28% per well. In control wells, 1.28 μL of DMSO was added in 98.7 μL of media. Compounds were tested in duplicates. Cells were incubated with compounds for 24 hours when cell viability was assessed by measuring ATP levels. ATP levels were measured by adding 50 μL of CellTiter-Glo reagent to each well and after 5 minutes of incubation luminescence was measured with SpectraMax i3. The potential effect of tested compounds on cell viability was determined by comparing the signal obtained in presence of different concentrations of the compounds with those obtained in the presence of DMSO only. The potential effects were then calculated and presented as IC50 values (μg/mL).

[3] = molecular target: Leucyl-tRNA synthetase (LeuRS) (Escherichia coli (strain K12), UniProt P07813); experiment: Leucyl-tRNA synthetase enzyme inhibition (AMP-Glo; single point % inhibition at 100 μM and IC50); type: biochemical
Chain of Leucyl-tRNA synthetase (LeuRS) (P07813 whole entry, looked up): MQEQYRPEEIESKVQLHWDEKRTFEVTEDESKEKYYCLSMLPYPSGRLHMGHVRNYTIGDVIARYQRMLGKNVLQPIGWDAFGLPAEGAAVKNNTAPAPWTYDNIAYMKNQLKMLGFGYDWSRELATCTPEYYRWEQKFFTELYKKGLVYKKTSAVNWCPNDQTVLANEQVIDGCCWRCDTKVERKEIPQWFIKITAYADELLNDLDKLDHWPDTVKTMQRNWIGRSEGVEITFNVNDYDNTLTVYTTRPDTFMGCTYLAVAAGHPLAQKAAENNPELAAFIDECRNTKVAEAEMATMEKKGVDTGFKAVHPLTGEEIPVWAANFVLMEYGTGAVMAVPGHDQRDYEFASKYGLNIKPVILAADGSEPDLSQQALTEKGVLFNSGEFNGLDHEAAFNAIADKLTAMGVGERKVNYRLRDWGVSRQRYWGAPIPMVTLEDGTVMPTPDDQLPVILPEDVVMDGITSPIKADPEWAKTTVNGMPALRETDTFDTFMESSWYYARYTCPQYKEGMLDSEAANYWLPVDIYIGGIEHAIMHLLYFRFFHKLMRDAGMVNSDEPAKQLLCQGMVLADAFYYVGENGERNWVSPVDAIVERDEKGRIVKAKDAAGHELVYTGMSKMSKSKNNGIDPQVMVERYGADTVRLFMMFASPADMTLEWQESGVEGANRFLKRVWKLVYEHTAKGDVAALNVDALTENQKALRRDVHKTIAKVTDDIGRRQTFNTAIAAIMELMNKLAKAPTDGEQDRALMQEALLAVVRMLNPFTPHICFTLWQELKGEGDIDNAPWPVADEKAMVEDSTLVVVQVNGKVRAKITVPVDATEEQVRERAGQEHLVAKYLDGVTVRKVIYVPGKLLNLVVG

[4] = molecular target: Isoleucyl-tRNA synthetase (IleRS) (Escherichia coli (strain K12), UniProt P00956); experiment: Isoleucyl-tRNA synthetase enzyme inhibition (AMP-Glo; single point % inhibition at 100 μM and IC50); type: biochemical; details: E. coli IleRS; read-out: Enzyme Inhibition - IC50, E. coli IleRS
Chain of Isoleucyl-tRNA synthetase (IleRS) (P00956 whole entry, looked up): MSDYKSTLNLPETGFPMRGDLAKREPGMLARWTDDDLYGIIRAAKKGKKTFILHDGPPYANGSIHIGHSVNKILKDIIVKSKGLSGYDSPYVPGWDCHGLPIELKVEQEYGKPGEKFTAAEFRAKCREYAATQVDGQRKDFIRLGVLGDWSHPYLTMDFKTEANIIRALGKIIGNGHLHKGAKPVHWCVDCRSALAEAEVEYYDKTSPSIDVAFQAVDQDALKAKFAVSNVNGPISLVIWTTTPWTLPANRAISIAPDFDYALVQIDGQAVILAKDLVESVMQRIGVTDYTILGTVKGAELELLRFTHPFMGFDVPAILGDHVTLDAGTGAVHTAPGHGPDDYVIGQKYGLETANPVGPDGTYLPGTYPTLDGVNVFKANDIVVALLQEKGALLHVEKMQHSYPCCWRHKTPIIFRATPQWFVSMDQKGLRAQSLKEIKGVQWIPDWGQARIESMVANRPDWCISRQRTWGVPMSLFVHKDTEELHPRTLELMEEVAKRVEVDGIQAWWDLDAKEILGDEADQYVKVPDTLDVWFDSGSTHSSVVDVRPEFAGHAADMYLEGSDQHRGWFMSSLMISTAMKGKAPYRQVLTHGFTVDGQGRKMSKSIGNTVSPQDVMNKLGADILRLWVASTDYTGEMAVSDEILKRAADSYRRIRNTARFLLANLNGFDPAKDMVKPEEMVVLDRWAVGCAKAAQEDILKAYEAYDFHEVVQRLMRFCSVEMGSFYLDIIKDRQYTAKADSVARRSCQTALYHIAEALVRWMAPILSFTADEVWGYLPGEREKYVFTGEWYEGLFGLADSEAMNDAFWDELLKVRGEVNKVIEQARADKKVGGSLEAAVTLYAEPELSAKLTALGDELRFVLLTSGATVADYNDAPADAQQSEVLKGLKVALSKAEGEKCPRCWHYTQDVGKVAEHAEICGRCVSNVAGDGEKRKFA
From the text: Study 1—Enzyme Inhibition
The aminoacylation reaction catalyzed by aminoacyl-tRNA synthetases (aaRS) takes place in two steps. In the first step, aaRS activates its cognate amino acid with ATP; and in the second step the activated amino acid is loaded to its corresponding tRNA. This reaction can be summarized as follows: aaRS+aa+ATP=aaRS-aa-AMP+PPi aaRS-aa-AMP+tRNA=aa-tRNA+AMP+aaRS […]
wherein: aaRS, aminoacyl-tRNA synthetase; aa, amino acid; aaRS-aa-AMP, enzyme-bound to aminoacyl-adenylate; AMP, adenosine monophosphate; aa-tRNA, aminoacyl-tRNA, PPi, inorganic pyrophosphate.
Isoleucyl-tRNA Synthetase a. Single Point Percentage Inhibition
The activity of the pathogenic aaRSs was monitored by measuring AMP production using the commercial kit AMP-Glo (Promega, Madison, USA).
Ligand stock solutions were prepared in 100% DMSO at 10 mM concentration. An assay buffer consisting of 100 mM Tris HCl pH 7.6, 40 mM MgCl, 20 mM KCl and 150 mM NaCl was prepared in dH2O. An enzyme solution containing 51.77 μM IleRS was prepared in assay buffer to provide 30 nM final assay concentration and 75 nM reservoir concentration for a 1:2.5 dilution in the assay. A substrate solution was also prepared in assay buffer with 50 mM L-isoleucine, 10 mM ATP and 100 mg/mL tRNA. A final assay concentration of 500 μM L-isoleucine, 5 μM ATP and 1 mg/mL tRNA and reservoir concentration of 833.33 μM L-isoleucine, 8.33 μM ATP and 1.67 mg/mL tRNA was used for a 1:1.66 dilution in assay.
Enzyme percentage inhibition values were recorded in triplicate at a single point concentration of 100 μM.
Using the same enzymatic assay in a 384-well plate format, ten point concentration response curves were generated for each compound using a top concentration of 100 μM. The known inhibitor, IleAMS was used as a positive control for the IleRS assay. 100% DMSO was used as a negative control. The IC50 was calculated based on non-linear regression analysis.

[5] = Acinetobacter baumannii, read-out: Antibacterial Activity (MIC), E = A. baumannii B1931
[6] = Enterobacter cloacae, read-out: Antibacterial Activity (MIC), B = Enterobacter cloacae B1966
[7] = Escherichia coli, ATCC25922, read-out: Antibacterial Activity (MIC), A = E. coli ATCC 25922
[8] = Haemophilus influenzae, ATCC49247, read-out: Antibacterial Activity (MIC), F = H. influenzae ATCC 49247
[9] = Klebsiella pneumoniae, ATCC700603, read-out: Antibacterial Activity (MIC), C = K. pneumoniae ATCC 700603
[10] = Pseudomonas aeruginosa, ATCC27853, read-out: Antibacterial Activity (MIC), D = P. aeruginosa ATCC 27853
[11] = Escherichia coli, BAA2469, read-out: Antibacterial Activity (MIC), G = E. coli BAA-2469

Row | SMILES | MIC [1, 5] [µg/mL] | MIC [1, 6] [µg/mL] | MIC [1, 7] [µg/mL] | MIC [1, 8] [µg/mL] | MIC [1, 9] [µg/mL] | MIC [1, 10] [µg/mL] | IC50 at 24 h [2] [µg/mL] | IC50 [3] [µM] | IC50 [4] [µM] | MIC [1, 11] [µg/mL] | IC50 ([3]; E. coli LeuRS, read-out: Enzyme Inhibition - IC50, E. coli LeuRS) [µM]
1 | CC(C)C[C@H](N)C(=O)N=[S@](N)(=O)c1cccc(Oc2ccc(Cl)cc2)c1.Cl [ANASIA-047-1] | > 64 | > 64 | > 64 | 64 | > 64 | > 64 | 46.5 | 0.0764 |  |  | 
2 | CC[C@H](C)[C@H](N)C(=O)N=[S@@](N)(=O)c1cccc(Oc2ccc(Cl)cc2)c1 [ANASIA-052-2] |  |  |  |  |  |  |  |  | 40.1 |  | 
3 | CC[C@H](C)[C@H](N)C(=O)N=[S@@](N)(=O)c1ccc2c(c1)CCO2 [ANASIA-053-1] |  |  |  |  |  |  |  |  | 20.2 |  | 
4 | CC[C@H](C)[C@H](N)C(=O)N=[S@](N)(=O)c1ccc2cccnc2c1 [ANASIA-054-1] |  |  |  |  |  |  |  |  | 83.7 |  | 
5 | CC[C@H](C)[C@H](N)C(=O)N=[S@@](N)(=O)c1ccc2cccnc2c1 [ANASIA-054-2] |  |  |  |  |  |  |  |  | 19.9 |  | 
6 | CC[C@H](C)[C@H](N)C(=O)N=[S@](N)(=O)c1ccc(OC)cc1 [ANASIA-055-1] |  |  |  |  |  |  |  |  | 35.1 |  | 
7 | CC[C@H](C)[C@H](N)C(=O)N=[S@](N)(=O)c1cccc(C(C)(C)C)c1 [ANASIA-056-1] |  |  |  |  |  |  |  |  | 84 |  | 
8 | CC[C@H](C)[C@H](N)C(=O)N=[S@](N)(=O)c1csc2ccccc12 [ANASIA-057-1] |  |  |  |  |  |  |  |  | 27.5 |  | 
9 | CC[C@H](C)[C@H](N)C(=O)N=S(N)(=O)c1nc(Cl)cs1 (stereo partly drawn) [ANASIA-058] |  |  |  |  |  |  |  |  | 58.6 |  | 
10 | CC[C@H](C)[C@H](N)C(=O)N=[S@@](N)(=O)c1cccc(OC(F)F)c1 [ANASIA-069-2] |  |  |  |  |  |  |  |  | 13.7 |  | 
11 | CC(C)C[C@H](N)C(=O)N=[S@](N)(=O)c1scc(Cl)c1Cl.Cl [ANASIA-081-1] | 32 |  | 2 | 1 | 256 | > 64 | > 64 | 0.0339 |  | 8 | 
12 | CC(C)C[C@H](N)C(=O)N=[S@@](N)(=O)c1ccccc1F.Cl [ANASIA-087-1] | > 64 | 64 | 11.3 | 32 | > 64 | > 64 | > 64 | 0.289 |  |  | 
13 | CC(C)C[C@H](N)C(=O)N=[S@](N)(=O)c1cccc(OC(F)F)c1.Cl [ANASIA-088-1] | > 64 | 64 | 4 | 4 | > 256 | > 64 | > 64 | 0.0753 |  | 32 | 
14 | CC(C)C[C@H](N)C(=O)N=[S@](N)(=O)c1ccsc1Cl.Cl [ANASIA-092-1] | 64 |  | 2 | 2 | 64 | > 64 | > 64 | 0.0484 |  | 11.3 | 
15 | CC(C)C[C@H](N)C(=O)N=S(N)(=O)c1csc2ccsc12 (stereo partly drawn) [ANASIA-100] | 32 (≈ 96.5 µM) |  | 0.5 (≈ 1.51 µM) | 0.5 (≈ 1.51 µM) | 64 (≈ 193 µM) | > 64 | > 64 |  |  | 4 (≈ 12.1 µM) | 0.0328
16 | COc1ccsc1[S@@](N)(=O)=NC(=O)[C@@H](N)CC(C)C.Cl [ANASIA-108-1] | > 64 |  | 8 | 32 | 64 | 64 | > 64 | 0.127 |  | 16 | 
